Laboratory results reported in patent publication US6469030B2, “Methods for the treatment and prevention of ileus” (Adolor Corporation, priority 1999, dated 2002).

How the values were obtained:
[1] = biological target: mu opioid receptors (Homo sapiens, UniProt P35372); conditions: opioid receptor binding assays; cited from earlier work
[2] = Solubility in water; format: physicochemical; conditions: except at low or high pH conditions
Description: Zwitterionic character may be inherent to the compound, and may impart desirable properties such as poor systemic absorption and sustained local affect on the gut following oral administration.

[3] = system: patients undergoing partial colectomy or simple or radical hysterectomy surgical procedures; experiment: Phase II clinical study versus placebo in patients after abdominal surgery (post-surgical ileus); format: in vivo, humans
Method: A 78 patient Phase II clinical study was conducted which compared two doses (2 mg and 12 mg) of the compound of formula (II) versus placebo in patients undergoing partial colectomy or simple or radical hysterectomy surgical procedures. The results of this study are set forth in the following Tables 1 to 4 and are depicted graphically in FIGS. 1 to 5.
The time to first flatus was reduced by 15 hours; all other measures were reduced by 24 hours or more. […] In particular, none of the patients receiving the higher dose of the compound of formula (II) experienced post-surgical vomiting compared to 23% in the placebo control group (P<0.03). Twenty seven percent of the patients receiving the higher dose of compound (II) experienced clinically relevant post- surgical nausea compared to 63% of the placebo control group (P=0.003).

mu opioid receptors, sequence (P35372 whole entry): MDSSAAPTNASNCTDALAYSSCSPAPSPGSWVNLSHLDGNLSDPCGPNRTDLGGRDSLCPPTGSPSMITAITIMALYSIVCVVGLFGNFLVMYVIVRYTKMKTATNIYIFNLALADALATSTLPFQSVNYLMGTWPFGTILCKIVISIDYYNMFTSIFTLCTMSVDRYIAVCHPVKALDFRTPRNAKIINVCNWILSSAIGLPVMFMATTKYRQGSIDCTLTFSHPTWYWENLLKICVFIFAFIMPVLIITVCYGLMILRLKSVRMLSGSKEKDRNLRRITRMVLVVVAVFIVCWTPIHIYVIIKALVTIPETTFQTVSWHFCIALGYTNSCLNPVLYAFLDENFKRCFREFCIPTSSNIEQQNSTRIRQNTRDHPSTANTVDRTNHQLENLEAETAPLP

C[C@H]1CN(C[C@H](Cc2ccccc2)C(=O)NCC(=O)O)CCC1(C)c1cccc(O)c1 (single isomer, unassigned; (+)) [compound of formula (II), (+)-Z—NHCH2C(O)OH]
opioid receptor binding preference [1]: preferential binding to mu opioid receptors | solubility in water [2]: low solubility in water | overall adverse effects compared with placebo-treated group ([3]; higher dose): fewer overall adverse effects | reduction of all other measures (first bowel movement, solid diet, ready for discharge, discharge) ([3]; higher dose versus placebo): ≥ 24 h | reduction of time to first flatus ([3]; higher dose versus placebo): 15 h | patients experiencing post-surgical vomiting ([3]; higher dose, 23% in the placebo control group (P<0.03)): none | patients experiencing clinically relevant post-surgical nausea ([3]; higher dose, 63% of the placebo control group (P=0.003)): Twenty seven | serious adverse side effects judged related to the compound ([3]; patients of the trial): No patients experienced serious adverse side effects | effect on beneficial analgesic effects of systemic narcotics ([3]; patients receiving systemic narcotics for post-surgical pain): did not reduce the beneficial analgesic effects
